Experimental data from ChEMBL document CHEMBL5291721, “A preclinical secondary pharmacology resource illuminates target-adverse drug reaction associations of marketed drugs” (Nat Commun, 2023).

What was measured:
[1] = target: Sodium-dependent dopamine transporter (Homo sapiens, UniProt Q01959)
[2] = target: T1, 5-hydroxytryptamine receptor 1A (Homo sapiens, UniProt P08908)
T1 sequence (P08908 whole entry): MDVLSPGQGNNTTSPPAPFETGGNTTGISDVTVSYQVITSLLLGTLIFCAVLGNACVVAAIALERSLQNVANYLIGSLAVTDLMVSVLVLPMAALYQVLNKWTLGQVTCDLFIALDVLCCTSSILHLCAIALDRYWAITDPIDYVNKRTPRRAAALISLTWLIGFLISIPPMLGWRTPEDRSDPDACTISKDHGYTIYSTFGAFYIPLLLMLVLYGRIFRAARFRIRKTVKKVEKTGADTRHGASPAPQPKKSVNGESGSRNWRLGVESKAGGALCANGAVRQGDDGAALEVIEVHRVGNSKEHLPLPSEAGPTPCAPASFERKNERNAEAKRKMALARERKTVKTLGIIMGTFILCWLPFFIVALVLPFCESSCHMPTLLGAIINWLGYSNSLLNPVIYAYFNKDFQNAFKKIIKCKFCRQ

Prothrombin = Prothrombin (Homo sapiens, UniProt P00734); type: functional
Thromboxane A2 receptor [3] = target: T2, Thromboxane A2 receptor (Homo sapiens, UniProt P21731); type: functional, cell-based
T2 sequence (P21731 whole entry): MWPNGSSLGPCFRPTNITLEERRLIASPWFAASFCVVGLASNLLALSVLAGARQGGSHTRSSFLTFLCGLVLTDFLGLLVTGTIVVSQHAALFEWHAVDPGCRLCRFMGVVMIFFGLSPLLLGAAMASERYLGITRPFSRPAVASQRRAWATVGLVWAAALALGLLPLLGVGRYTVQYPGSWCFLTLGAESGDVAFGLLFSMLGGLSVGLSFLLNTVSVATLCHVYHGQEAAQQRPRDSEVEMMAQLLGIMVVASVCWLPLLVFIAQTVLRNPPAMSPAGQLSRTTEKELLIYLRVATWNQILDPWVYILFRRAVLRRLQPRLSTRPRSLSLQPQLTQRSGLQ

[4] = target: T3, Muscarinic acetylcholine receptor M2 (Homo sapiens, UniProt P08172)
T3 sequence (P08172 whole entry): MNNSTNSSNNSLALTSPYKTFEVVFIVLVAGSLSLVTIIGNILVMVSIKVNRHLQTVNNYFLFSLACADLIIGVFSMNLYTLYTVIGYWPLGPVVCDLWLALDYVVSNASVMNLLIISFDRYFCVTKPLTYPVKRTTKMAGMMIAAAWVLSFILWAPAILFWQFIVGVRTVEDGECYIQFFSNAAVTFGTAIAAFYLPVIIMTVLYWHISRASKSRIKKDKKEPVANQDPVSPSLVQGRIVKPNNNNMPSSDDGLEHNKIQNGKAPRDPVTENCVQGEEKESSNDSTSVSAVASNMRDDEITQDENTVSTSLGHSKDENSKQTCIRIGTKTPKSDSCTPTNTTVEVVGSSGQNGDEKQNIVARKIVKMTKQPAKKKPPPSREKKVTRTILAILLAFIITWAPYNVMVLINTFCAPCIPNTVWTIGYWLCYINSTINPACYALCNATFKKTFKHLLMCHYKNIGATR

[5] = target: cGMP-inhibited 3',5'-cyclic phosphodiesterase 3A (Homo sapiens, UniProt Q14432); type: functional
[6] = target: Voltage-gated inwardly rectifying potassium channel KCNH2 (Homo sapiens, UniProt Q12809); type: functional
[7] = target: T4, Amine oxidase [flavin-containing] A (Homo sapiens, UniProt P21397); type: functional
T4 sequence (P21397 whole entry): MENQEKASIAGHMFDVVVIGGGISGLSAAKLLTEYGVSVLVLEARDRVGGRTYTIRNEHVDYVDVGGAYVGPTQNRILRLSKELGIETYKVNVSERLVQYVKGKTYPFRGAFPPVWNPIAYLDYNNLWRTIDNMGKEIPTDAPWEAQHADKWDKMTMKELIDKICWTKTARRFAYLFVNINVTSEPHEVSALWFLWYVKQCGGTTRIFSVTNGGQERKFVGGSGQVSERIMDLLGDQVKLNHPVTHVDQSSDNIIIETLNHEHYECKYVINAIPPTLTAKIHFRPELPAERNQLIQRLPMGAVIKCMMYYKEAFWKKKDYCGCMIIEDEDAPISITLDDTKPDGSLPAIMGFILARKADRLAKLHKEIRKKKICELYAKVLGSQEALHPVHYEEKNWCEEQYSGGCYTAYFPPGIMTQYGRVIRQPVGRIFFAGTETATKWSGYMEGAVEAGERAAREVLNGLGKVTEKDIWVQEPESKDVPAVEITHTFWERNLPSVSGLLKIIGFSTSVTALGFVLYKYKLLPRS

Acetylcholinesterase = Acetylcholinesterase (Homo sapiens, UniProt P22303); type: functional
[8] = target: 3',5'-cyclic-AMP phosphodiesterase 4A (Homo sapiens, UniProt P27815); type: functional
[9] = target: 5-hydroxytryptamine receptor 2B (Homo sapiens, UniProt P41595); type: functional, cell-based
[10] = target: T5, Alpha-2A adrenergic receptor (Homo sapiens, UniProt P08913)
T5 sequence (P08913 whole entry): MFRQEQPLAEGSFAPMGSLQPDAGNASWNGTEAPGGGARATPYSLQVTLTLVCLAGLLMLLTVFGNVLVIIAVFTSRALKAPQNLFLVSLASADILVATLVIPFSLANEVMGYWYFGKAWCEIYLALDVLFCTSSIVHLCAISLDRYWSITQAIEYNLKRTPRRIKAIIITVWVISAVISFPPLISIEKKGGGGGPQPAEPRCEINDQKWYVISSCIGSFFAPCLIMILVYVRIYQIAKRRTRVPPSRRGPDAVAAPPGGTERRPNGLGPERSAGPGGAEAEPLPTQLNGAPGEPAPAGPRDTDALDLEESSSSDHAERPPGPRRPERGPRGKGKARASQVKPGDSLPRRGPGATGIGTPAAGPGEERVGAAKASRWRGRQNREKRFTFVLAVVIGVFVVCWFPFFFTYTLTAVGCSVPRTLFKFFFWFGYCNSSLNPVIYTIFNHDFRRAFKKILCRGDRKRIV

Histamine H3 receptor = Histamine H3 receptor (Homo sapiens, UniProt Q9Y5N1)
Thromboxane A2 receptor [11] = target: T2, Thromboxane A2 receptor; type: functional, cell-based; remark: listed apart in the source
Further: assay procedure not described here.

Chain of Histamine H3 receptor (Q9Y5N1 whole entry): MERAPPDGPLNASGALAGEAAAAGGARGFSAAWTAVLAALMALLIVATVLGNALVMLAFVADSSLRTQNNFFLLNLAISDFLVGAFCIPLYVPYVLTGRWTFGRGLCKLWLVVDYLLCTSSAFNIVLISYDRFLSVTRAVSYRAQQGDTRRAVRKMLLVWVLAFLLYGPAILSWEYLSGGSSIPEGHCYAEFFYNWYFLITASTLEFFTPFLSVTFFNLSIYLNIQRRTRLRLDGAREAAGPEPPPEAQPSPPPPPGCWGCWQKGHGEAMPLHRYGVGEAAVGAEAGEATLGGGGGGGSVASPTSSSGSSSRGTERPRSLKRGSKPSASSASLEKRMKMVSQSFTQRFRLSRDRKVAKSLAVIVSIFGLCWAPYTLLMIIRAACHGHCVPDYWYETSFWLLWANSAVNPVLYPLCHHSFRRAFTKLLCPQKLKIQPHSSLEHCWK
Chain of Voltage-gated inwardly rectifying potassium channel KCNH2 (Q12809 whole entry): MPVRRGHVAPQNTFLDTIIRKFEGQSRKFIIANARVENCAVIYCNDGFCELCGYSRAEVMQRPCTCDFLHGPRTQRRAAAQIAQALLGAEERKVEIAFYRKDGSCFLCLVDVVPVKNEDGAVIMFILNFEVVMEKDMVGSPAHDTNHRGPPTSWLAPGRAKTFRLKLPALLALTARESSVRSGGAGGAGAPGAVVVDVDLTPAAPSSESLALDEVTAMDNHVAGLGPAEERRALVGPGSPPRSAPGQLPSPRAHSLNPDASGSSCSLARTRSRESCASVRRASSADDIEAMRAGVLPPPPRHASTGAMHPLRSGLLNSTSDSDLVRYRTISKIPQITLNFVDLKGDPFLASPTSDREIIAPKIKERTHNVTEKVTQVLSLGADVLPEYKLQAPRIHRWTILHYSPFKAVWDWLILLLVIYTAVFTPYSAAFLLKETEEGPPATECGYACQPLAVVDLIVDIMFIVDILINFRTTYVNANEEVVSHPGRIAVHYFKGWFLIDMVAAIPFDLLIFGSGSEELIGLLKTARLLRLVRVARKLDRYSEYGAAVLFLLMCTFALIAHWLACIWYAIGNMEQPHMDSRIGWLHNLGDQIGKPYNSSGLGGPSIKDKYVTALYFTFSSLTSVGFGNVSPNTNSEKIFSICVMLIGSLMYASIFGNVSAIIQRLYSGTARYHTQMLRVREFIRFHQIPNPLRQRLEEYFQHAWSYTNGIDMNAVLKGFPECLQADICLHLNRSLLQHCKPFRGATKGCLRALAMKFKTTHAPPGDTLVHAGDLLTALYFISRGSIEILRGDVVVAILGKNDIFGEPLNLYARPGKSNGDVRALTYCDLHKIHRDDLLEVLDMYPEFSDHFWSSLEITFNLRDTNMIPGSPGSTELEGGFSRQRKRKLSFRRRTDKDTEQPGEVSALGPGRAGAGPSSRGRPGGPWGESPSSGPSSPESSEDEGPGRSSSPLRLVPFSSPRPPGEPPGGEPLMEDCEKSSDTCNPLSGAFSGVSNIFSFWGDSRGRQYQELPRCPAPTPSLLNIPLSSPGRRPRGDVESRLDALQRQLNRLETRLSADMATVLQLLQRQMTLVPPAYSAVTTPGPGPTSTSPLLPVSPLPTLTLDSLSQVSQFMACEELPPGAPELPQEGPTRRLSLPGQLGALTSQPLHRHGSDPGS
Chain of 5-hydroxytryptamine receptor 2B (P41595 whole entry): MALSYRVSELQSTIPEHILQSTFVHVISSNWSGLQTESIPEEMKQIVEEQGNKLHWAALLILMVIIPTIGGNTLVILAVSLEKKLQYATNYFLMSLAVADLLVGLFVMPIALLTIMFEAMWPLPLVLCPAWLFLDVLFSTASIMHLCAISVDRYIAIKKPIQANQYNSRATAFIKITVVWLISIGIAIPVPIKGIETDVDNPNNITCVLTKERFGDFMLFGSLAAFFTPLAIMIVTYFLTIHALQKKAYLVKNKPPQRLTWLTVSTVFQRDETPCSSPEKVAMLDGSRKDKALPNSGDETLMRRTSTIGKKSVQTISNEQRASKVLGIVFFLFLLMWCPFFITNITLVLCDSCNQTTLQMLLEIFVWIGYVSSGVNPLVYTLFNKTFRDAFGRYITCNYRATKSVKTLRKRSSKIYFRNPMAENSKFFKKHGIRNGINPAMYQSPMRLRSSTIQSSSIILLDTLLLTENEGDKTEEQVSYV
Chain of Acetylcholinesterase (P22303 whole entry): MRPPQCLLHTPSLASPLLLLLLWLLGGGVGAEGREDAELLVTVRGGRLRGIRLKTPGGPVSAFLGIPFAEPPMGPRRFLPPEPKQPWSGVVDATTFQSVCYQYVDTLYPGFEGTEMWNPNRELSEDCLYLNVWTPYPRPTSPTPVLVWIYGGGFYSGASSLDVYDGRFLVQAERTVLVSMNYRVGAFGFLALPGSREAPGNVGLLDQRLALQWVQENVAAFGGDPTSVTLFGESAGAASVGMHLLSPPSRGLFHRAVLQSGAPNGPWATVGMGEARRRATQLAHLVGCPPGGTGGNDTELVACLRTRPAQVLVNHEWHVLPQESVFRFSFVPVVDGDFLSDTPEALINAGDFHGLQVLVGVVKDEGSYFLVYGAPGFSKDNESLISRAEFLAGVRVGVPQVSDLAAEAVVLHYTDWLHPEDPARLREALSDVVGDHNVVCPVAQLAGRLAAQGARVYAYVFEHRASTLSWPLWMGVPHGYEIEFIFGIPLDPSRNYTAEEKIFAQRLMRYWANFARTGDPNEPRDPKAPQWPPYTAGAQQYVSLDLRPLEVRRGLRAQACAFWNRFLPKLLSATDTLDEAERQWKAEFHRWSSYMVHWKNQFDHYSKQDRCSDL
Chain of Sodium-dependent dopamine transporter (Q01959 whole entry): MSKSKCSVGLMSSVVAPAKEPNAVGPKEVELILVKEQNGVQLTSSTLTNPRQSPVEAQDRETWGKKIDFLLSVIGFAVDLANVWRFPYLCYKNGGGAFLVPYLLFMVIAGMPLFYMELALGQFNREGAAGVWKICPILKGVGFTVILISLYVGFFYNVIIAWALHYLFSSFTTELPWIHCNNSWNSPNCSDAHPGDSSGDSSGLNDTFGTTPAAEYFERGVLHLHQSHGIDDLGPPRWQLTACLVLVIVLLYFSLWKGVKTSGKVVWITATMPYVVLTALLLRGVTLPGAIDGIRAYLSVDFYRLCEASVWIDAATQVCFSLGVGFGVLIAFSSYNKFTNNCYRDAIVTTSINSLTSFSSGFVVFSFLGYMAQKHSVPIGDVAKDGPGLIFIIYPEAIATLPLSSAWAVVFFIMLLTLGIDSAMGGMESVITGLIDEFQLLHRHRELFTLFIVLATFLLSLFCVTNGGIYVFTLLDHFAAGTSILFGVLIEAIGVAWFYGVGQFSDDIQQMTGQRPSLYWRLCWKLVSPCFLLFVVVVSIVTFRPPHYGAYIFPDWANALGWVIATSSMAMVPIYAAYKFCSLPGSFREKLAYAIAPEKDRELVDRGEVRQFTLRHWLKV
Chain of 3',5'-cyclic-AMP phosphodiesterase 4A (P27815 whole entry): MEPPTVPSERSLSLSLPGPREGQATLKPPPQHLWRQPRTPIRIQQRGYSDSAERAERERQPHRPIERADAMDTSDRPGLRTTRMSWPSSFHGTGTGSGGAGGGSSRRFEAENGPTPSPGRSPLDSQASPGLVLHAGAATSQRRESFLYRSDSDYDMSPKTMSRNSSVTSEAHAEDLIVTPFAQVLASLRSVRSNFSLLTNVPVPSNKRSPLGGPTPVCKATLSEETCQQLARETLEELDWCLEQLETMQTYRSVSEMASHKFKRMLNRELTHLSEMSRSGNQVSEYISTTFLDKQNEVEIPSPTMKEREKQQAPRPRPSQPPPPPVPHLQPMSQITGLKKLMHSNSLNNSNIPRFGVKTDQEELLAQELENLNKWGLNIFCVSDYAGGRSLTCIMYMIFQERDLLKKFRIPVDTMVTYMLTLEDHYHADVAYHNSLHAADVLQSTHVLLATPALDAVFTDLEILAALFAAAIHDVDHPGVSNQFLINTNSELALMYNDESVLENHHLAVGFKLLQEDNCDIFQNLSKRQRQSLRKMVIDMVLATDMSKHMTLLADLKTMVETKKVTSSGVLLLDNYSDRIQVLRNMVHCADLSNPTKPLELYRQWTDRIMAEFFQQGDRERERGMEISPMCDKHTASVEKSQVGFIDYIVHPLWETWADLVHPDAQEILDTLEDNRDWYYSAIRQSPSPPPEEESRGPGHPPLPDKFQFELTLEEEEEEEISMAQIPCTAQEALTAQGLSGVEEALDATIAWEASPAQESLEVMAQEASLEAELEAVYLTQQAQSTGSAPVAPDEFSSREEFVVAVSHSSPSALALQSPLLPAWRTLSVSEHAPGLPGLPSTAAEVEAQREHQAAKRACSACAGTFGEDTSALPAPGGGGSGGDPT

| Compound | AC50 [1] | AC50 [2] | AC50 (Prothrombin) | AC50 (Thromboxane A2 receptor [3]) | AC50 [4] | AC50 [5] | AC50 [6] | AC50 [7] | AC50 (Acetylcholinesterase) | AC50 [8] | AC50 [9] | AC50 [10] | AC50 (Histamine H3 receptor) | AC50 (Thromboxane A2 receptor [11]) |
| --- | --- | --- | --- | --- | --- | --- | --- | --- | --- | --- | --- | --- | --- | --- |
| CC(=O)OCC(=O)[C@@]1(O)CC[C@H]2[C@@H]3CCC4=CC(=O)CC[C@]4(C)[C@H]3[C@@H](O)C[C@@]21C [HYDROCORTISONE ACETATE] | > 30 µM | > 30 µM | > 30 µM | > 30 µM | > 30 µM | > 30 µM | > 30 µM | > 30 µM | > 30 µM | > 30 µM | > 30 µM | > 30 µM | > 30 µM | > 30 µM |
| CC(COc1ccccc1)NC(C)C(O)c1ccc(O)cc1 (centres undefined) [ISOXSUPRINE] | 0.625 µM | 0.203 µM | > 30 µM | > 30 µM | > 30 µM | > 30 µM | 15 µM | > 10 µM | > 30 µM | > 30 µM | > 30 µM | 0.446 µM | > 30 µM | > 30 µM |
| Cc1oc(=O)oc1COC(=O)[C@@H]1N2C(=O)[C@@H](NC(=O)[C@H](N)c3ccccc3)[C@H]2SC1(C)C [LENAMPICILLIN] | > 30 µM | > 30 µM | > 30 µM | 24.9 µM | > 30 µM | > 30 µM | > 30 µM | > 30 µM | > 30 µM | > 30 µM | > 30 µM | > 30 µM | > 30 µM | > 30 µM |
| COc1ccc(OC)c(C(O)C(C)N)c1 (centres undefined) [METHOXAMINE] | > 30 µM | > 30 µM | > 30 µM | > 30 µM | > 30 µM | > 30 µM | > 30 µM | > 30 µM | > 30 µM | > 30 µM | > 30 µM | 25.9 µM | > 30 µM | > 30 µM |
| CC1(CCN2CCCCC2)C(=O)CCc2ccccc21 (centres undefined) [NEPINALONE] | > 30 µM | > 30 µM | > 30 µM | > 30 µM | 7.14 µM | > 30 µM | > 30 µM | > 30 µM | > 30 µM | > 30 µM | > 30 µM | 18.3 µM | > 30 µM | > 30 µM |
| COC(=O)C[C@](O)(CCCC(C)(C)O)C(=O)O[C@@H]1C(OC)=C[C@]23CCCN2CCc2cc4c(cc2[C@H]13)OCO4 [OMACETAXINE MEPESUCCINATE] | > 30 µM | > 30 µM | > 30 µM | > 30 µM | > 30 µM | > 30 µM | > 30 µM | > 30 µM | > 30 µM | > 30 µM | > 30 µM | > 30 µM | > 30 µM | > 30 µM |
